Entries after “also recorded” stand apart in the source; their conditions may differ.
What was measured:
[1] = tested on: WT (C57BL/6) mice; assay: Ex vivo platelet activation and aggregation after intravenous injection; format: in vivo, mouse
Protocol: FIG. 19(A-Q) is an exemplary embodiment of B12-5 having an antithrombotic effect without prolonging tail bleeding times in mice in accordance with the present disclosure. FIG. 19(A-C): Ex vivo effects of B12-5. […] One hour later, blood was drawn, followed by isolating platelets. P-selectin exposure (FIG. 19A) and αIIbβ3 integrin activation (FIG. 19B) were assessed in flow cytometry. FIG. 19C: Platelet aggregation was measured after treatment with 0.025 U/mL thrombin. The data represent the mean±SD (n=4). FIG. 19D: The plasma levels of B12-5 were analyzed by liquid chromatography-tandem mass spectrometry (LC-MS/MS) after intravenous injection of the compound (5 μg/g BW) into WT mice and quantified by comparison with a standard curve of B12-5 (mean±SD, n=3). […] The median integrated fluorescence intensities of anti-CD42c (F platelet) and anti-fibrin (F fibrin) antibodies (n=37-42 arterioles in 6 mice per group). Quantification of the antibody signal at a different time point after laser injury. […] Thirty minutes later, tail bleeding times and Hb contents were measured after amputation of the tail tip. […] Twenty-three hours later, neurological deficits were assessed by the Bederson score and grip test, and infarct volume was measured as described in Methods. […] Twenty-three hours later, the neurological deficit and infarct volume were measured as described above. […]

[2] = H2O2 (antioxidant) activity assay; format: biochemical
Text: (§1) FIG. 17(A-F) is an exemplary embodiment of identification of novel ERO1α inhibitors by high throughput screening in accordance with the present disclosure. FIG. 17A: A scheme of an ERO1α activity assay. FIG. 17B: Screening of chemical libraries in the ERO1α activity assay. FIG. 17C: The inhibitory effect of selected compounds on ERO1α activity. FIG. 17D: The inhibitory effect of selected compounds on PDI activity. FIG. 17E: The inhibitory effect of selected compounds on H2O2 activity. FIG. 17F: The inhibitory effect of selected compounds on thiol-reacting activity. The data represent the mean±SD (n=3). *P<0.05, **P<0.01, ***P<0.001, and ****P<0.0001 vs. vehicle control, Student's t-test.
(§2) To identify a novel ERO1α inhibitor, 5800 compounds were screened using an ERO1α activity assay (FIG. 17A and FIG. 17B). […] The selected compounds were further tested in assays measuring PDI, antioxidant, and thiol-reacting activities (FIG. 17D through FIG. 17F). […] B12 inhibited P-selectin exposure and αIIbβ3 activation in agonist-activated mouse and human platelets in a concentration-dependent manner (FIG. 18B through FIG. 18E).

[3] = target: PDI (Homo sapiens, UniProt P07237); assay: PDI activity assay; format: biochemical
Text: as §1, §2

Chain of PDI (P07237 18-508, species assumed): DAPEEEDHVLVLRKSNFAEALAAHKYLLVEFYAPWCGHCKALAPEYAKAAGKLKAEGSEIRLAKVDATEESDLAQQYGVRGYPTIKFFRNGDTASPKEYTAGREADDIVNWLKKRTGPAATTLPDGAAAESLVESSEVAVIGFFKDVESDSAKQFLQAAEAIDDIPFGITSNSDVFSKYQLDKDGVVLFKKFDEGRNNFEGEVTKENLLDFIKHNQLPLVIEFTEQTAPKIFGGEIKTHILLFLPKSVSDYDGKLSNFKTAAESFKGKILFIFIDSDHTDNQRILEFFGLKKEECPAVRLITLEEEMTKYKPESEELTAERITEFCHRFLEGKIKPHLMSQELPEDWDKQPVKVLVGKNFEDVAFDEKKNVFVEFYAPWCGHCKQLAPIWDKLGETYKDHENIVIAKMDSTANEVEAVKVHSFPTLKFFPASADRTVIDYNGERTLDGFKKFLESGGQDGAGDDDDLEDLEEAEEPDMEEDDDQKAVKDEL

## O=C(CSc1nc(O)cc(O)n1)N1c2ccccc2Sc2ccccc21 [B12-5]
[1]; 2 μg/g BW, data not shown
  inhibitory effects ex vivo: did not show inhibitory effects
[1]; iv 5 μg/g BW, blood drawn 1 hour later
  P-selectin exposure, αIIbβ3 integrin activation, and aggregation ex vivo: significantly inhibited
[2]; 100 μM
  H2O2 inhibition at 100 μM (%): 6.6 ± 2%
[2]; at or up to 100 μM
  effect on H2O2 (antioxidant) activity: minimal effect; also recorded: did not affect
[3]; 100 μM
  PDI inhibition at 100 μM (%): 8.2 ± 2%
[3]; at or up to 100 μM
  effect on PDI activity: minimal effect; also recorded: did not affect
